Laboratory results: patent US9155715B2, “Transdermal composition comprising tolterodine” (SK Chemicals Co., Ltd., priority 2009, dated 2015)

What was measured:
Assay type in all cases: physicochemical
[1] = Screening of antioxidant (tolterodine decomposition in H2O2 solution); conditions: 25° C., 100 rpm, 2.5 days
Procedure: (§1) [Analytical Method] • Test solution: tolterodine (−0.5 mg/mL) • Mobile phase: 45:55 mixture solution of ammonium dihydrogen phosphate and methanol, pH 7.0 • HPLC condition: detector 220 nm, column ODS3 C-18
Tolterodine free base (500 mg) was mixed with ethanol (50 mL) in a 100 mL flask and 0.3% H2O2 solution was added thereto to a final volume of 100 mL.
Antioxidant, weighed 10 mg each, was added into two glass bottles. One bottle contained tolterodine and the antioxidant, while the other bottle contained only the antioxidant, which was prepared to exclude the peaks resulting from the decomposition of the antioxidant by H2O2.
Tolterodine solution (2 mL) or a 1:1 mixture solution of 0.3% H2O2 aqueous solution and ethanol (2 mL) were added to the two glass bottles containing the antioxidant. The bottles were agitated at 100 rpm and 25° C. for 2.5 days.

[2] = Stress decomposition test of tolterodine under acidic/basic/oxidizing conditions; conditions: for Total decomposed substances (peak area ratio of decomposed substances of tolterodine): 24 hours, HPLC
Procedure: Tolterodine free base (20 mg) was added respectively to three 100 mL flasks. Each of the above flasks was then added with 0.1 M HCl (5 mL), 0.1 M NaOH (5 mL) and 0.3% H2O2 solution (5 mL), respectively, added with methanol to a final volume of 20 mL and was subjected to ultrasonic extraction for 10 minutes.
Each sample was allowed to stand at room temperature for 24 hours and decomposed substances of tolterodine were quantitated by HPLC as follows.
as §1

[3] = Stress decomposition test of tolterodine under heat conditions
Procedure: as §1
Tolterodine free base (25-30 mg) was weighed and added into four glass bottles which were then capped with plugs. Three of the glass bottles were placed in an oven preheated at 120° C. At 10 minutes, 20 minutes and 30 minutes, each glass bottle was taken out from the oven and was allowed to cool enough at room temperature. After adding methanol (100 mL) to the four glass bottles followed by ultrasonic extraction for 10 minutes, decomposed substances of tolterodine were quantitated by HPLC as in Reference Example 1.

[4] = tolterodine in ethanol/0.3% H2O2 with 10 mg of the named antioxidant

SMILES: O=C(O)CC(O)C(=O)O (racemic) [d,l-Malic acid]
- Total decomposed substances (peak area ratio of decomposed substances of tolterodine) [1, 4]: 1.39%

SMILES: CC(=O)Oc1c(C)c(C)c2c(c1C)CC[C@@](C)(CCC[C@H](C)CCC[C@H](C)CCCC(C)C)O2 [(+)-α-Tocopherol acetate]
- Total decomposed substances (peak area ratio of decomposed substances of tolterodine) [1, 4]: 23.56%

SMILES: COc1ccc(O)c(C(C)(C)C)c1 [Butylated hydroxyanisole (BHA), Butylated hydroxyanisole]
- Total decomposed substances (peak area ratio of decomposed substances of tolterodine) [1, 4]: 23.87%

SMILES: Cc1cc(C(C)(C)C)c(O)c(C(C)(C)C)c1 [Butylated hydroxytoluene (BHT), Butylated hydroxytoluene]
- Total decomposed substances (peak area ratio of decomposed substances of tolterodine) [1, 4]: 18.82%

SMILES: O=C(O)CC(O)(CC(=O)O)C(=O)O [Citric acid]
- Total decomposed substances (peak area ratio of decomposed substances of tolterodine) [1, 4]: 1.46%

SMILES: CCOC(=O)c1cc(O)c(O)c(O)c1 [Ethyl gallate]
- Total decomposed substances (peak area ratio of decomposed substances of tolterodine) [1, 4]: 13.00%

SMILES: O=C([O-])CN(CCN(CC(=O)[O-])CC(=O)[O-])CC(=O)[O-].[Ca+2].[Na+].[Na+] [Ethylenediaminetetraacetic acid calcium disodium salt]
- Total decomposed substances (peak area ratio of decomposed substances of tolterodine) [1, 4]: 29.69%

SMILES: CCCCCCCCCCCCOC(=O)c1cc(O)c(O)c(O)c1 [Lauryl gallate]
- Total decomposed substances (peak area ratio of decomposed substances of tolterodine) [1, 4]: 19.94%

SMILES: O=S([O-])[O-].[Na+].[Na+] [Sodium sulfite]
- Total decomposed substances (peak area ratio of decomposed substances of tolterodine) [1, 4]: 5.67%

SMILES: O=S([O-])([O-])=S.[Na+].[Na+] [Sodium thiosulfate]
- Total decomposed substances (peak area ratio of decomposed substances of tolterodine) [1, 4]: 1.94%

SMILES: Cc1c(C)c2c(c(C)c1O)CCC(C)(CCCC(C)CCCC(C)CCCC(C)C)O2 (stereo not drawn) [d,l-α-Tocopherol]
- Total decomposed substances (peak area ratio of decomposed substances of tolterodine) [1, 4]: 20.29%

SMILES: CCCCCCCCCCCCCCCC(=O)OC[C@H](O)[C@H]1OC(=O)C(O)=C1O [l-Ascorbic acid 6-palmitate]
- Total decomposed substances (peak area ratio of decomposed substances of tolterodine) [1, 4]: 1.94%

SMILES: O=C1O[C@H]([C@@H](O)CO)C(O)=C1O [l-Ascorbic acid]
- Total decomposed substances (peak area ratio of decomposed substances of tolterodine) [1, 4]: 1.21%

SMILES: Cl.N[C@@H](CS)C(=O)O [l-Cysteine HCl]
- Total decomposed substances (peak area ratio of decomposed substances of tolterodine) ([1]; tolterodine in ethanol/0.3% H2O2 with 10 mg of the named antioxidant, HCl): 1.70%

SMILES: N[C@@H](CCC(=O)O)C(=O)O [l-Glutamic acid]
- Total decomposed substances (peak area ratio of decomposed substances of tolterodine) [1, 4]: 1.52%

SMILES: O=C(O)C(O)C(O)C(=O)O (stereo not drawn) [l-Tartaric acid]
- Total decomposed substances (peak area ratio of decomposed substances of tolterodine) [1, 4]: 1.44%

SMILES: CCCCCCCCOC(=O)c1cc(O)c(O)c(O)c1 [n-Octyl gallate]
- Total decomposed substances (peak area ratio of decomposed substances of tolterodine) [1, 4]: 15.97%

SMILES: Cc1ccc(O)c([C@H](CCN(C(C)C)C(C)C)c2ccccc2)c1 [tolterodine]
- Total decomposed substances (peak area ratio of decomposed substances of tolterodine) ([2]; 0.1M HCl, room temperature): 0.59%
- Total decomposed substances (peak area ratio of decomposed substances of tolterodine) ([2]; 0.1M NaOH, room temperature): 0.83%
- Total decomposed substances (peak area ratio of decomposed substances of tolterodine) ([2]; 0.3% H2O2, room temperature): 4.74%
- Production of decomposed substances of tolterodine under stress conditions (in words) ([2]; harsh oxidizing condition, compared with acid, base and heat): Much of decomposed substances of tolterodine were produced
- Total decomposed substances (peak area ratio of decomposed substances of tolterodine) ([3]; 120° C./0 min): 0.45%
- Total decomposed substances (peak area ratio of decomposed substances of tolterodine) ([3]; 120° C./10 min): 0.59%
- Total decomposed substances (peak area ratio of decomposed substances of tolterodine) ([3]; 120° C./20 min): 0.63%
- Total decomposed substances (peak area ratio of decomposed substances of tolterodine) ([3]; 120° C./30 min): 0.78%
- Total decomposed substances (peak area ratio of decomposed substances of tolterodine) ([1]; tolterodine in ethanol/0.3% H2O2, antioxidant: None): 26.08%
